Assay results taken from PMC7405012, “Detection of Chaetomium globosum, Ch. cochliodes and Ch. rectangulare during the Diversity Tracking of Mycotoxin-Producing Chaetomium-like Isolates Obtained in Buildings in Finland” (Toxins, 2020).
≈ marks a conversion by molar mass, not a printed value. Where two headings read alike, the source gives them in different places.

Experiments:
[1] = system: resting PK-15 cells; experiment: Mitochondrial damage test: accelerated glucose consumption and extracellular acidosis; format: cell-based, porcine
Experimental: The mitochondria were depolarized in sperm cells exposed to sublethal concentrations of chaetoglobosin A (Figure 5) and to the chaetoglobosin-containing extracts (Table 3). This observation aroused the suspicion regarding mitochondrial toxicity. The mitochondrial toxicity of the extracts containing chaetoglobosin was assessed by measuring the accelerated glucose consumption in resting PK-15 cells. […] By contrast, the positive controls for mitochondrial toxicity—enniatin B, moniliformin and valinomycin at sublethal concentrations of 1.5, 4 and 5 ng mL^−1, respectively—promoted the acceleration of glycolysis.
The test for mitochondrial damage as indicated by accelerated glucose consumption and extracellular acidosis was described earlier. The PK-15 cells were grown in 8-well flat-bottom chamber glass slides, seeded to a density of 4 × 10^4 cells mL^−1, in the respective medium for 48 h. The twofold serially diluted test substances or the vehicle only was dispensed into the wells. The glucose content of the wells was measured by using a glucose meter (Precision Xceed; Abbott Diabetes Care Ltd., Berkshire, United Kingdom). In wells that received nothing or the vehicle only, the glucose concentration decreased from an initial concentration (0 h) of 12 to 6 mM (24 h), but the pH remained as pH of 7.2. A glucose concentration after 24 h of ≤3 mM indicated excessive glucose consumption. Prior to the measurement of the pH, the chamber slides were transferred into ambient air for 1 h to allow CO2 to evaporate. A pH drop of 0.5 units in the toxin-exposed well compared to the vehicle only was considered proof of acidosis. Mitochondrial depolarization (ΔΨm assay) was read by a fluorescence microscope after 26 h of exposure to the toxicants from the monolayers double stained with the membrane potential-responsive fluorogenic dye JC-1 and with propidium iodide to assess the relaxing of the plasma membrane permeability barrier, similar to what was reported previously for sperm cells (27).

[2] = system: resting boar spermatozoa; experiment: Motility inhibition of resting boar spermatozoa (BSMIR); format: cell-based; conditions: resting boar sperm, 24 °C, 2 days
Experimental: (§1) Three criteria were assessed: (1) the motility inhibition of resting boar spermatozoa (BSMIR); (2) the change in mitochondrial membrane potential (ΔΨ) observed using the potentiometric dye JC-1; and (3) the plasma membrane integrity (SMIDR) observed using the viability stain calcein-AM + propidium iodide (PI). […] By contrast, the EC50 concentrations in the SMIDR assays, which measured the lethal damages in plasma membrane after incubation for two days, were >50 times higher (Figure 5 and Table 3).
The procedure for the BSMIR assay measuring sublethal toxicity as motility inhibition, i.e., inability to respond to induction of motility in resting sperm cells is described below: The ethanol solutions (0.5–10 μL) were dispensed in 2000 μL of extended boar semen (Figen Ltd., Tuomikylä, Finland, density of 27 × 10^6 sperms mL^−1) incubated at 24 °C, and motility of the sperms was inspected in the phase-contrast microscope (400× magnification) with a heated stage, (Olympus CKX41, Tokyo, Japan; magnification 400×) and an image recording software (Cellsense® standard version 11.0.06, Olympus Soft Imaging Solutions GmbH, Münster, Germany, 2012) as described previously. […] The EC50 was calculated from the equation of the straight line between EC50-40 and EC80-90: Y = −ΔY/ΔX × X + C where Y is the motility closest to 50% of the motility of the solvent control, X is the EC50 concentration and C is a constant between 100% and 60%. All tests were run in triplicates and differences between replicate tests were within one dilution step (2-fold). The sperm assays were calibrated with triclosan and valinomycin.

[3] = system: resting boar spermatozoa; experiment: Mitochondrial membrane potential (ΔΨm) assay with JC-1 in resting spermatozoa; format: cell-based
Experimental: as §1
(§2) The boar sperm cells exposed for 2 days to commercial chaetoglobosin A and the crude extract of MTAV35 and MTAV37 were double-stained with the viability stains PI + calcein–AM, the SMIDR assay, as described earlier. The staining protocol was as follows: 200 μL of extended boar semen containing 27 × 10^6 sperm cells mL^−1 was mixed with 200 μL PBS containing 3 μg mL^−1 calcein-AM and 10 μg mL^−1 PI. The ΔΨm assay monitored the mitochondrial membrane potential changes (ΔΨm) by staining with the lipophilic potentiometric dye JC-1 as described by Mikkola et al. (2015). For the staining with JC-1 (35 µg mL^−1), 200 µL of the sperm cells were shaken and incubated at 37 °C for 5 min. After staining, the cells exposed in the SMIDR and the ΔΨm assays were inspected with fluorescence microscope using 400× magnification (Nikon Eclipse E600, Nikon Corporation, Tokyo Japan) with filters BP 450–490 nm/LP 520. The calcein–AM-stained cells with intact plasma membranes produced green fluorescence, whereas the PI-dyed cells with damaged plasma membranes produced red fluorescence. In JC-1 stained sperm cells, mitochondria with high membrane potential emitted yellow fluorescence, whereas depolarized mitochondria fluoresced green.
(§3) The EC50 concentration in these microscopic assays was defined as the lowest concentration where the ratio of cells similar to those in the solvent control was less than 50%. This EC50 fitted between EC90 and EC10 observed in the microscope calculating ca. 100–120 sperm cells from three microscopic fields. The maximal difference between four parallel tests in each of the two methods was one dilution step. The assays were calibrated with triclosan.

[4] = system: boar spermatozoa; experiment: cells; format: cell-based; conditions: Spermatozoa, 20 min; motile boar sperm, 20 min, 37 °C; read-out: EC50 BSMIM Boar Sperm 20 min
[5] = system: boar spermatozoa; experiment: cells; format: cell-based; conditions: Spermatozoa; motile boar sperm, 2 h, 37 °C; read-out: EC50 SMIDM Boar Sperm 2 h
[6] = system: resting boar spermatozoa; experiment: Plasma membrane integrity of resting spermatozoa (SMIDR), calcein-AM + PI; format: cell-based; conditions: Spermatozoa, 48 h; resting boar sperm, 24 °C, 2 days; read-out: EC50 Lethal Toxicity SMIDR 2 days
Experimental: as §1, with “The long-term effects of exposure to chaetoglobosin A and to the chaetoglobosin-containing extracts of the Ch. globosum MTAV35 and MTAV37 strains were measured in resting sperm cells exposed at 24 °C for two days. Three” for “Three”
as §2, §3

C/C1=C\[C@@H](C)C/C=C/[C@H]2[C@@H]3O[C@]3(C)[C@@H](C)[C@H]3[C@H](Cc4c[nH]c5ccccc45)NC(=O)[C@]32C(=O)/C=C/C(=O)[C@@H]1O [Chaetoglobosin A, chaetoglobosin A]
EC50 Sublethal Toxicity Acceleration of glycolysis 1 day ([1]; PK-15, 1 day): None | EC50 Sublethal Toxicity Acidosis 2 days ([1]; PK-15, 2 days): None | EC50 Sublethal Toxicity BSMIR 2 days [2]: 1 µg/mL (≈ 1.89 µM) | EC50 ([3]; Spermatozoa, 48 h, read-out: EC50 Sublethal Toxicity Depletion of ΔΨm 2 days, resting boar sperm, JC-1, 2 days): 3 to 4 µg/mL (≈ 5.67 to 7.57 µM) | EC50 Sublethal Toxicity Depletion of ΔΨm 2 days ([3]; resting boar sperm, JC-1, 2 days): 2 µg/mL | EC50 [4]: 1 µg/mL (≈ 1.89 µM) | EC50 [5]: 12 µg/mL (≈ 22.7 µM) | CC50 [6]: > 20 µg/mL
